In patent publication US7553832B2, “Methods and compositions for specific inhibition of protein splicing by small molecules” (Boston Biomedical Research Institute, priority 2005, dated 2009):
pIC50: −log10 of the molar value.

These molecules were tested against T1, M. tuberculosis DnaB intein (Mycobacterium tuberculosis, UniProt P9WMR3) (assay: biochemical).
T1 sequence (P9WMR3 400-815 limits assumed): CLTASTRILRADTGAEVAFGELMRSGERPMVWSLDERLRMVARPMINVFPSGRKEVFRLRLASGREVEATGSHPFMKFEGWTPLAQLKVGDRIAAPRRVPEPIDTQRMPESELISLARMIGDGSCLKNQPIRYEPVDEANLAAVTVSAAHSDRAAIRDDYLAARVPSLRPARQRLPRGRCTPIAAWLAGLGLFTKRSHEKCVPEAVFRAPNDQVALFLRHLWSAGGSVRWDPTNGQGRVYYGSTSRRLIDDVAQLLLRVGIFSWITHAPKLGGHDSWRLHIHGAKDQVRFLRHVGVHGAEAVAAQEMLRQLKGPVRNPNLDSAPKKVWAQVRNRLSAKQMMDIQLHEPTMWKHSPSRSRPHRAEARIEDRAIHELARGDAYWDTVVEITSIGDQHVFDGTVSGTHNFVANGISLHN
Format: biochemical

Structure (SMILES)	pIC50
Oc1cc2c(cc1C(c1ccc(Cl)c(Cl)c1)N1CCCC1)OCO2 (stereo not shown) [Compound 1]	4.52
CCCN(CCC)S(=O)(=O)c1ccc(C(=O)SCC(=O)OCC)cc1 [Compound 2]	4.89
CS(=O)(=O)c1cc(C(F)(F)F)cc(S(C)(=O)=O)c1S(C)(=O)=O [Compound 3]	4.77
O=S(=O)(c1ccc(Br)cc1)c1snnc1-c1ccccc1 [Compound 6]	4.89
O=S(=O)(c1ccc(Cl)c(Cl)c1)c1snnc1-c1ccccc1 [Compound 7]	5.22
COc1ccc(NC(=O)C(Cl)=C(Cl)[S+]([O-])Cc2ccccc2)cn1 (stereo not shown) [Compound 9]	5.15
O=C(Nc1ccccc1)c1nnsc1S(=O)(=O)c1ccc(Cl)cc1 [Compound 10]	5.15
O=C(c1nnsc1[S+]([O-])c1ccc(Cl)cc1)N1CCCCC1 (stereo not shown) [Compound 11]	5.10
O=C(CCl)N1CCN2C(=O)c3ccccc3C12c1ccc(Cl)cc1 (stereo not shown) [Compound 13]	5.10
N#CC1(C#N)C(c2cccc(I)c2)C(C(N)=O)N2C=Cc3ccccc3C21 (stereo not shown) [Compound 17]	4.82
N#CC1(C#N)C(c2ccccc2Cl)C1(C#N)C#N [Compound 21]	4.82
O=C(Oc1ccc(Cl)cc1)c1snnc1-c1ccccc1 [Compound 23]	> 5.30
N#CCSc1ccc(C#N)cc1 [Compound 24]	4.92
C=CCn1c(Sc2ncnc3c2sc(=S)n3CC=C)nnc1-c1ccccc1 [Compound 27]	> 5.30
N#CC(N)=C(C#N)NCc1ccccc1Sc1ccc(Cl)cc1 [Compound 29]	> 5.30
CC1(C)CC(=O)c2c(S(C)(=O)=O)sc(C(=O)OCc3ccccc3)c2C1 [Compound 30]	> 5.30
COC(=O)c1sc(S(C)(=O)=O)c(C#N)c1-c1cc(C(C)(C)C)oc1C [Compound 33]	> 5.30
O=S(=O)(c1cccc(C(F)(F)F)c1)c1snnc1-c1ccccc1 [Compound 35]	> 5.30
CC1(C)CC(=O)C2(C(=O)C1)C(c1ccc(Cl)cc1Cl)C2(C#N)C#N (stereo not shown) [Compound 37]	> 5.30

Structure (SMILES)	pIC50
O=C(OCn1ncc(Cl)c(Cl)c1=O)c1cccc(C(F)(F)F)c1 [Compound 38]	> 5.30
Cn1cc(C(=O)c2cccc(Cl)c2Cl)cc1C(=O)C(Cl)(Cl)Cl [Compound 40]	> 5.30
CCOC(=O)c1nnc(-c2ccccc2)nc1Sc1ccccc1C(=O)OC [Compound 41]	> 5.30
COc1ccc(NC(=O)C(Cl)=C(Cl)[S+]([O-])Cc2ccc(C)cc2)cn1 (stereo not shown) [Compound 43]	> 5.30
Oc1cc(OCc2ccc(C(F)(F)F)cc2)ccc1-c1cc[nH]n1 [Compound 44]	> 5.30
[O-][S+](c1ccc(C(F)(F)F)cc1)c1cnn2c(Cl)nnc2c1 (stereo not shown) [Compound 45]	> 5.30
COc1cccc(N(NC(=O)C(O)(c2cccc(C(F)(F)F)c2)c2cccc(C(F)(F)F)c2)C(=O)CCl)c1 [Compound 51]	> 5.30
O=C(Nn1c(C2CCCCC2)nc2ccccc2c1=O)c1cc([N+](=O)[O-])cc([N+](=O)[O-])c1Cl [Compound 53]	> 5.30
O=[N+]([O-])c1cc(C(F)(F)F)cc([N+](=O)[O-])c1Sc1nc2ccccc2[nH]1 [Compound 55]	5.15
CCOC(=O)CSc1nc2c(c(-c3cccs3)c1C#N)CN(C)CC2 [Compound 56]	5.00
O=C(c1c[nH]c(C(=O)C(Cl)(Cl)Cl)c1)c1cccc(Cl)c1Cl [Compound 59]	> 5.30
Cc1cc(Oc2c([N+](=O)[O-])cc(C(F)(F)F)cc2[N+](=O)[O-])ccc1Cl [Compound 64]	> 5.30
Cc1cc(S(=O)(=O)c2ccc(C(F)(F)F)cc2[N+](=O)[O-])c(Cl)cc1Cl [Compound 66]	> 5.30
O=C(Sc1ccccc1)c1ccc2ncsc2c1 [Compound 68]	5.05
Oc1cc2c(cc1C(c1ccc(C(F)(F)F)cc1)N1CCOCC1)OCO2 (stereo not shown) [Compound 69]	4.43
Oc1ccc(Br)cc1CNc1cccc(C(F)(F)F)c1 [Compound 70]	5.30
CCOC(=O)c1cc(C#N)c(Sc2nnc(SCC3CC3)s2)nc1C(F)(F)F [Compound 71]	> 5.30
CCOC(=O)c1cc(C#N)c(Sc2nnc(SC)s2)nc1C(F)(F)F [Compound 72]	> 5.30
